Results from patent US20070254903A1, “Novel Spiroindoline or Spiroisoquinoline Compounds, Methods of Use and Compositions Thereof” (ARENA PHARMACEUTICALS, INC., priority 2003, published 2007).
pIC50: −log10 of the molar value.

Biological target: T1, human Mas receptor (Homo sapiens, UniProt P04201)
T1 construct: expressed in transfected cells
T1 sequence (P04201 1-325): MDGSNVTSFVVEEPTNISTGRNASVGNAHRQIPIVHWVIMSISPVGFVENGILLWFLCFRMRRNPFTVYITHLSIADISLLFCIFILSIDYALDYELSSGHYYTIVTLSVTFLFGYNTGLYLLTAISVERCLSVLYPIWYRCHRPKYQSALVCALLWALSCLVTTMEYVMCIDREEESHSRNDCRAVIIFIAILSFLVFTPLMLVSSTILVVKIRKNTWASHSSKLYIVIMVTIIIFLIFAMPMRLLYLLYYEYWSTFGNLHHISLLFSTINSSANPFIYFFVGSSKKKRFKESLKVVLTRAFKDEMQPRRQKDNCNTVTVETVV
Assay: Mas receptor IP3 assay (inverse agonist assay)
Type: cell-based
Procedure: The Mas receptor IP3 assay was performed using a mammalian cell line (HEK293) which was transfected with a plasmid containing the human Mas receptor and selected for stable expression of the receptor. For the inverse agonist assay, higher levels of Mas receptor constitutive activity were desired. To achieve this, Mas receptor expression levels were increased by transiently transfecting the same Mas receptor stable cell line with additional human Mas receptor plasmid DNA following standard procedures. These cells were used in the Mas receptor IP3 assay approximately 24 hours post-transfection.
Cells were split into 96-well plates (50,000 cells/well) and allowed to attach for a period of 6 hours. The growth medium was then replaced with medium supplemented with 4 μCi/ml [^3H]myo-inositol (100 μl; Perkin Elmer Life Sciences) and the cells were allowed to incubate for approximately 20 hours. Test compounds were serially diluted in inositol-free media containing 10 mM LiCl. The media in the plates was removed by aspiration, replaced with these test compound solutions and incubated at 37° C. for 1 hour. Following this incubation, the media was removed by aspiration and replaced with buffer containing 0.1M formic acid. The plates were then frozen overnight at −80° C. to achieve complete cell lysis.
The following day, the assay plates were thawed at room temperature. The thawed contents were then transfered to 96-well filter plates (Millipore, Multiscreen) pre-loaded with resin (Biorad, AG1-X8 100-200 mesh, formate form). The plate was filtered using a vacuum manifold and the resin was washed multiple times with water. An elution buffer was then applied (200 μl, 0.2M Ammonium formate/0.1M formic acid) and the resulting eluent was collected, under vacuum, in a 96-well collection plate. Aliquots of the eluent (80 μl) were transferred to filter plates (Whatman, Unifilter GF/C) and dried in a 45° C. oven overnight. Dried plates were counted on a scintillation counter following the addition of an appropriate scintillant (Perkin Elmer Life Sciences, Optiphase Supermix or Hi-Safe 3).

C=CCN1CCC2(CC1)CN(C(=O)c1cccc(F)c1F)c1ccc(F)cc12 [Compound 75, 1′-(allyl)-1,2-dihydro-5-fluoro-1-(2,3-difluoro-benzoyl)-spiro[3H-indole-3,4′-piperidine]]
pIC50 (HEK293 cells over-expressing human Mas receptor, average from several experiments): 6.53
pIC50 (representative experiment, FIG. 1): 6.65
